This note sets out measurements from patent US6699861B1, “Anti-quinazoline compounds” (Cancer Research Technology Limited, priority 1999, dated 2004).

Series [1] relates to W1L2 human lymphoblastoid cells. Nature of the series: Growth inhibition of W1L2 cells. It is filed as cell-based. The note with it: W1L2 suspension cells, read-out: Inhibition of Cell Growth IC50, W1L2 (B).
Another series deals with W1L2:C1 cells. Briefly: Growth inhibition of W1L2:C1 cells (elevated TS). The note with it: read-out: Inhibition of Cell Growth IC50, W1L2:C1 (B). In kind it is cell-based, human. As for the experimental part:
W1L2 human lymphoblastoid, W1L2:C1 (elevated TS; O'Connor et al, Cancer Res, 52, 1137-1143 (1992)) and L1210 mouse leukaemia cells were cultured in suspension and A2780, PXN94, 41M, HX62, SKOV3 (human ovarian carcinoma), MCF-7 (human breast carcinoma), HT29 and SW480 (human colon carcinoma) cell lines were grown as monolayers as described in Jackman et al, Cancer Res, 50, 5212-5218 (1990) and Jackman et al, Br. J. Cancer, 71, 914-924 (1995).
Growth inhibition studies with suspension cells were performed as described in Jackman et al, Cancer Res, 50, 5212-5218 (1990). Activity against the adherent cell lines was assessed by MTT assay (Twentyman et al, Br. J. Cancer, 56, 279-285 (1987)) where cells were seeded in 96-well plates at 1000-3000 cells per well, incubated overnight and then exposed to the appropriate drug concentrations for 96-120 h.

The subject of a further series is W1L2:R865 cell line. Nature of the series: Growth inhibition of W1L2:R865 cells (acquired resistance to CB 30865). In kind it is cell-based, human. The protocol: A cell line was raised with acquired resistance to CB 30865, denoted W1L2:R865, by stepwise selection over ˜9 months.
The generated W1L2:R865 cell line was routinely cultured in 0.03 μm CB 30865 under the same conditions as W1L2 cells, with cells being grown in the absence of CB 30865 for ˜2 weeks before an experiment.
The activity of compounds against W1L2:R865 cells was determined within parallel experiments by 72 h growth inhibition assay (Coulter counts). CB 30865 was included in every experiment as an internal control.

The test system of another series is W1L2 cells. Nature of the series: Growth inhibition of W1L2 in presence of folate metabolites (dThd/HX). It is filed as cell-based, human. The settings on record: in the presence of 10 μM thymidine (dThd) and 50 μM hypoxantine (HX), read-out: Inhibition of Cell Growth IC50, W1L2 + dThd/HX (C). The protocol: Growth inhibition assays as described above were performed in W1L2 cells where compounds were incubated in the presence of 10 μM thymidine (dThd) and 50 μM hypoxantine (HX) (purchased from Sigma Chemical Co.).

For series [2], the target named is mouse thymidylate synthase (TS) (Mus musculus, UniProt P07607). Nature of the series: Inhibition of L1210 thymidylate synthase (TS).
Chain of mouse thymidylate synthase (TS) (P07607 whole entry): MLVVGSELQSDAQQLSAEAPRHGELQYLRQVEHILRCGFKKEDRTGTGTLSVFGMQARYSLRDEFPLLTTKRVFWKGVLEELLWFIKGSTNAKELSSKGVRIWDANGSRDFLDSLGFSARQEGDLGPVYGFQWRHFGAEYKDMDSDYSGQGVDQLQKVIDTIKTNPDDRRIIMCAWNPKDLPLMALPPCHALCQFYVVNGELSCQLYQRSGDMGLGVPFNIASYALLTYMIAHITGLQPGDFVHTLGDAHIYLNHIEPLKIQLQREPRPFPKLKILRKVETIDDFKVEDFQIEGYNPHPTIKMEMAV
Where [3] appears, read: Homo sapiens, Lymphoblastoid cell.
The mark [4] stands for this setting: Homo sapiens, 72 h growth inhibition assay (Coulter counts), read-out: Inhibition of Cell Growth IC50, W1L2:R865 (D).
[5] abbreviates: Homo sapiens, 72 h, read-out: Inhibition of Cell Growth IC50, W1L2:R865 (D), 72 h growth inhibition assay (Coulter counts).
The mark [6] stands for this setting: 72 h growth inhibition assay (Coulter counts), read-out: Inhibition of Cell Growth IC50, W1L2:R865 (D).
The mark [7] stands for this setting: read-out: Inhibition of Cell Growth IC50, W1L2:R865 (D), 72 h growth inhibition assay (Coulter counts).

“And” between values parts separate entries of the source, which are not always exact repeats. Identical values can stand only once. Like-named read-outs stand apart in the source and are kept apart here. Some results are limits rather than exact numbers.

Regarding `C#CCN(c1ccc(C(=O)NCc2cccnc2)cc1)C1CCc2cc3cc(C)n(C)c(=O)c3cc21` (centres unmarked) [CB300847, reference compound], the IC50 was 6.5 ± 1.7 nM in series [1] (setting [3]), 2.7 nM in the series on W1L2:C1 cells (Homo sapiens) and 2500 nM in the series on W1L2:R865 cell line (setting [4]).

For `C#CCN(Cc1cc2c(=O)n(C)c(CN3CCN(C)CC3)nc2cc1Cl)c1ccc(C(=O)NCc2cccnc2)cc1` [CB300921, 4-[N-[7-Chloro-3-methyl-2-(4-methyl-piperazin-1-yl)methyl-4-oxo-3,4-dihydroquinazolin-6-ylmethyl]-N-(prop-2-ynyl)amino]-N-(3-pyridylmethyl)benzamide], the IC50 in series [1] (setting [3]) is 0.65 ± 0.15 nM; in the series with W1L2:C1 cells it was 0.62 nM and 0.54 nM; with W1L2:R865 cell line (setting [5]), greater than 10000 nM.

The molecule `C#CCN(Cc1cc2c(=O)n(C)c(CN3CCCCC3)nc2cc1Cl)c1ccc(C(=O)NCc2cccnc2)cc1` [CB300923, 4-[N-[7-Chloro-3-methyl-4-oxo-2-piperidinomethyl-3,4-dihydroquinazolin-6-ylmethyl]-N-(prop-2-ynyl)amino]-N-(3-pyridylmethyl)benzamide] showed a melting point of 148 to 150 °C. Besides, the IC50 in series [1] (setting [3]) stood at 0.8 nM. The IC50 with W1L2 cells (Homo sapiens) worked out at 0.78 nM. In addition, in the series with W1L2:R865 cell line (setting [5]), the IC50 was 14000 nM. Moreover, the “Inhibition of L1210 TS (A) IRP* (inverse relative potency)” value in series [2] is greater than 4211.

For the molecule `C#CCN(Cc1cc2c(=O)n(C)c(CN3CCOCC3)nc2cc1Cl)c1ccc(C(=O)NCc2cccnc2)cc1` [CB300925, 4-[N-[7-Chloro-3-methyl-2-morpholinomethyl-4-oxo-3,4-dihydroquinazolin-6-ylmethyl]-N-(prop-2-ynyl)amino]-N-(3-pyridylmethyl)benzamide], the melting point was greater than 145 °C. In addition, the IC50 in series [1] (setting [3]) came out at 2 ± 0.36 nM. Besides, the IC50 with W1L2:R865 cell line (setting [5]) worked out at 19000 nM.

Take `C#CCN(Cc1cc2c(=O)n(C)c(CN3CCCC3)nc2cc1Cl)c1ccc(C(=O)NCc2cccnc2)cc1` [CB300926, 4-[N-[7-Chloro-3-methyl-2-pyrrolidinomethyl-4-oxo-3,4-dihydroquinazolin-6-ylmethyl]-N-(prop-2-ynyl)amino]-N-(3-pyridylmethyl)benzamide]: the IC50 in series [1] (setting [3]) stood at 0.7 nM; in series [1] it was 0.74 nM; with W1L2 cells (Homo sapiens), 0.76 nM; with W1L2:R865 cell line (setting [5]) it was 24000 nM.

On to `C#CCN(Cc1cc2c(=O)n(C)c(CN3CCN(CC)CC3)nc2cc1Cl)c1ccc(C(=O)NCc2cccnc2)cc1` [CB300927, 4-[N-[7-Chloro-3-methyl-2-(4-ethyl-piperazin-1-yl)methyl-4-oxo-3,4-dihydroquinazolin-6-ylmethyl]-N-(prop-2-ynyl)amino]-N-(3-yridylmethyl)benzamide], for which the IC50 in series [1] was 0.78 nM and 0.8 nM; with W1L2 cells, 0.78 nM and 0.76 nM; in the series with W1L2:R865 cell line (setting [6]), 22000 nM and 20000 nM.

In the case of `C#CCN(Cc1cc2c(=O)n(C)c(CN3CCC[C@H]3C(=O)OC)nc2cc1Cl)c1ccc(C(=O)NCc2cccnc2)cc1` [CB300928, 4-[N-[7-Chloro-3-methyl-2-(methyl-L-prolin-1-yl)methyl-4-oxo-3,4-dihydroquinazolin-6-ylmethyl]-N-(prop-2-ynyl)amino]-N-(3-pyridylmethyl)benzamide], the IC50 in the series with W1L2 cells was 14 nM and 7.6 nM; with W1L2:R865 cell line (setting [6]) it was 24000 nM and 19000 nM.

For the molecule `C#CCN(Cc1cc2c(=O)n(C)c(CN3CCN(C)CC3)nc2cc1Cl)c1ccc(C(=O)NCCCn2ccnc2)cc1` [CB300929, 4-[N-[7-Chloro-3-methyl-2-(4-methyl-piperazin-1-yl)methyl-4-oxo-3,4-dihydroquinazolin-6-ylmethyl]-N-(prop-2-ynyl)amino]-N-[3-(1H-imidazol-1-yl)propyl)benzamide], the melting point was greater than 115 °C. In addition, the IC50 in series [1] (setting [3]) is 2.1 nM. In series [1], the IC50 is 2.2 nM. Further, the IC50 in the series with W1L2:C1 cells (Homo sapiens) is 2.3 nM. For the same molecule, the IC50 in the series with W1L2:C1 cells turned out to be 2.2 nM. Besides, the IC50 in the series with W1L2:R865 cell line (setting [5]) was 18000 nM. The IC50 in the series on W1L2:R865 cell line (setting [7]) came out at 14000 nM.

Molecule `C#CCN(Cc1cc2c(=O)n(C)c(CN3CCN(CCO)CC3)nc2cc1Cl)c1ccc(C(=O)NCc2cccnc2)cc1` [CB300930, 4-[N-[7-Chloro-3-methyl-2-(4-(2-hydroxyethyl)-piperazin-1-yl)methyl-4-oxo-3,4-dihydroquinazolin-6-ylmethyl]-N-(prop-2-ynyl)amino]-N-(3-pyridylmethyl)benzamide] showed a melting point of 115 to 117 °C. In addition, in the series on W1L2:R865 cell line (setting [5]), the IC50 came out at 22000 nM. For the same molecule, the IC50 in the series on W1L2:R865 cell line (setting [7]) amounted to 19000 nM.

For `C#CCN(Cc1cc2c(=O)n(CC(=O)OC)c(CN3CCCCC3)nc2cc1Cl)c1ccc(C(=O)NCc2cccnc2)cc1` [CB300931, 4-[N-[7-Chloro-3-methoxycarbonylmethyl-4-oxo-2-piperidin-1-ylmethyl-3,4-dihydroquinazolin-6-ylmethyl]-N-(prop-2-ynyl)amino]-N-(3-pyridylmethyl)benzamide], the melting point is 214 to 216 °C. The IC50 in series [1] (setting [3]) is 11 nM. The IC50 with W1L2:C1 cells (Homo sapiens) came out at 9.6 nM. Also, in the series with W1L2:R865 cell line (setting [5]), the IC50 came out at 23000 nM.

Regarding `C#CCN(Cc1cc2c(=O)n(CCN(C)C)c(CN3CCCCC3)nc2cc1Cl)c1ccc(C(=O)NCc2cccnc2)cc1` [CB300933, 4-[N-[7-Chloro-3-(2-dimethylaminoethyl)-4-oxo-2-piperidin-1-ylmethyl-3,4-dihydroquinazolin-6-ylmethyl]-N-(prop-2-ynyl)amino]-N-(3-pyridylmethyl)benzamide], the melting point was in the range of 90 to 93 °C. Further, the IC50 in series [1] (setting [3]) was 2.9 nM. In the series on W1L2:C1 cells (Homo sapiens), the IC50 stood at 2.8 nM. Besides, the IC50 in the series on W1L2:R865 cell line (setting [5]) was found to be 7200 nM.

`C#CCN(Cc1cc2c(=O)n(C)c(CN3CCN(c4ccccc4)CC3)nc2cc1Cl)c1ccc(C(=O)NCc2cccnc2)cc1` [CB300934, 4-[N-[7-Chloro-3-methyl-4-oxo-2-(4-phenylpiperazin-1-yl)methyl-3,4-dihydroquinazolin-6-ylmethyl]-N-(prop-2-ynyl)amino]-N-(3-pyridylmethyl)benzamide]: the melting point is 214 to 216 °C. The IC50 in series [1] (setting [3]) was 7.2 nM. Moreover, in the series on W1L2:C1 cells (Homo sapiens), the IC50 was 5.4 nM. Moreover, in the series on W1L2:R865 cell line (setting [5]), the IC50 stood at 940 nM.

On to `C#CCN(Cc1cc2c(=O)n(CC(=O)N3CCCCC3)c(CN3CCCCC3)nc2cc1Cl)c1ccc(C(=O)NCc2cccnc2)cc1` [CB300938, 4-[N-[7-Chloro-4-oxo-2-(piperidin-1-yl)methyl-3-piperidinocarbonylmethyl-3,4-dihydroquinazolin-6-ylmethyl]-N-(prop-2-ynyl)amino]-N-(3-pyridylmethyl)benzamide], for which the melting point was 128 to 130 °C. In addition, the IC50 in series [1] (setting [3]) came to 8.4 nM. Moreover, the IC50 with W1L2:C1 cells (Homo sapiens) came to 7.4 nM. Besides, the IC50 with W1L2:R865 cell line (setting [5]) was greater than 50000 nM.

Take `C#CCN(Cc1cc2c(=O)n(C)c(CN3CCC(O)CC3)nc2cc1Cl)c1ccc(C(=O)NCc2cccnc2)cc1` [CB300939, 4-[N-[7-Chloro3-methyl-2-(4-hydroxypiperidin-1-yl)methyl-4-oxo-3,4-dihydroquinazolin-6ylmethyl]-N-(prop-2-ynyl)amino]-N-(3-pyridylmethyl)benzamide]: the IC50 worked out at 0.72 nM in series [1] (setting [3]), 0.7 nM with W1L2:C1 cells (Homo sapiens) and 18000 nM in the series on W1L2:R865 cell line (setting [5]).

Molecule `C#CCN(Cc1cc2c(=O)n(CC(=O)N(CC)CC)c(CN3CCCCC3)nc2cc1Cl)c1ccc(C(=O)NCc2cccnc2)cc1` [CB300941, 4-[N-[7-Chloro-3-diethylcarbamoylmethyl-4-oxo-2-(piperidin-1-yl)methyl-3,4-dihydroquinazolin-6-ylmethyl]-N-(prop-2-ynyl)amino]-N-(3-pyridylmethyl)benzamide] returned a melting point greater than 105 °C. Moreover, in series [1] (setting [3]), the IC50 is 9.4 nM. Also, the IC50 in the series with W1L2:C1 cells (Homo sapiens) turned out to be 8.4 nM. The IC50 in the series on W1L2:R865 cell line (setting [5]) was 19000 nM.

In the case of `C#CCN(Cc1cc2c(=O)n(C)c(CN3CCCCC3)nc2cc1Cl)c1ccc(C(=O)NCCCn2cncn2)cc1` [CB300942], the IC50 in series [1] was greater than 500 nM; with W1L2:C1 cells, greater than 500 nM; with W1L2:R865 cell line (setting [6]) it was 20000 nM.

Consider `CN(c1ccc(C(=O)NCc2cccnc2)cc1)C1CCc2cc3nc(CN4CCCCC4)n(C)c(=O)c3cc21` (centres unmarked) [CB300943], for which the IC50 in series [1] (setting [3]) was 28 nM; with W1L2:C1 cells (Homo sapiens), 26 nM; in the series on W1L2:R865 cell line (setting [4]), greater than 500 nM.

As usually defined, the melting point is the temperature of the solid-liquid transition.
